The values that follow come from patent US8470844B2, “Imidazoacridinone derivative compounds and methods for their use” (Technion Research & Development Foundation Limited, priority 2008, dated 2013).

In one test the test system is A549 cells. As to the kind of experiment: MTT cytotoxicity assay, parental A549 cells. It is filed as cell-based, Human. The note with it: 96 hours exposure, mean of at least three experiments. How it is done:
(§1) Tissue culture: Human non-small cell lung cancer A549 cells and T-cell leukemia CCRF-CEM cells were grown under monolayer conditions or up to a maximal density of 10^6 cells/ml (for CCRF-CEM cells) in RPMI-1640 medium (GIBCO) supplemented with 10% fetal calf serum, 2 mM glutamine, 100 μg/ml penicillin and 100 μg/ml streptomycin (Biological Industries, Beth-Haemek, Israel) in a humid atmosphere of 5% CO2. Drug resistant A549/K1.5 cells with ABCG2 overexpression were maintained under a continuous drug selection with 1.5 μM C-1305. Bram, E. E., et al., (2007) Biochem Pharmacol 74(1), 41-53.
(§2) Cytotoxicity and growth inhibition assays: The cytotoxic activity of the various IA antitumor agents was determined using the MTT assay. Poindessous, V., et al., (2003) Clin Cancer Res 9(7), 2817-2825.
(§3) Exponentially growing cells were seeded at 5×10^3 cells/well in 24-well plates (2 ml medium/well). Following an overnight incubation, cells were exposed to different drug concentrations for 96 hours. Cellular viability was determined by adding the tetrazolium salt MTT for 4 h at 37° C., followed by solubilization of the intracellular precipitated formazan in 1 ml DMSO and absorbance was determined by a microplate reader (ASYS Hitech GmbH, Austria). Drug concentrations required to inhibit cell growth by 50% (IC50) compared with untreated controls were determined from the curves of survival versus drug concentrations using the SlideWrite software (Advanced Graphics Software, Inc., Encinitas, Calif.). Resistance folds (RF) were calculated by dividing the IC50 value of the resistant cells by that of the parental cell line. Values presented are means of at least three independent experiments, each performed in duplicates.
Background: Tetrazolium dyes change colour on reduction, which living cells bring about.
As a reminder, the IC50 is the concentration that gives 50% inhibition. In the case of `CN(C)CCNc1ccc2ncn3c4ccc(O)cc4c(=O)c1c23.Cl` [C-1584], the IC50 was 0.01 ± 0.002 µM.

In the case of `CCN(CC)CCNc1ccc2ncn3c4c(O)cccc4c(=O)c1c23.Cl` [C-1633], the IC50 turned out to be 2.26 ± 0.33 µM.

With `CCN(CC)CCCNc1ccc2nc(C)n3c4ccc(OC)cc4c(=O)c1c23.Cl` [C-1379], the half-maximal inhibitory concentration (IC50) turned out to be 1.07 ± 0.03 µM.

`CCN(CC)CCNc1ccc2ncn3c4cc(O)ccc4c(=O)c1c23.Cl` [C-1419]: the IC50 was 2.92 ± 0.42 µM.

For `CCN(CC)CCNc1ccc2ncn3c4ccc(OC)cc4c(=O)c1c23.Cl` [C-1330], the IC50 came to 2.16 ± 0.27 µM.

For `CCN(CC)CCCNc1ccc2ncn3c4ccc(O)cc4c(=O)c1c23.Cl` [C-1335], the IC50 worked out at 0.09 ± 0.004 µM.

Turning to `CN(C)CCCNc1ccc2ncn3c4ccccc4c(=O)c1c23.Cl` [C-1212], the IC50 stood at 1.89 ± 0.42 µM.

On to `Cc1nc2ccc(NCCN(C)C)c3c(=O)c4ccccc4n1c23.Cl` [C-1213], for which the IC50 was 12.3 ± 2.5 µM.

For the compound `CCN(CC)CCNc1ccc2ncn3c4ccc(C)cc4c(=O)c1c23.Cl` [C-1554], the IC50 was 2.02 ± 0.33 µM.

With `COc1ccc2c(c1)c(=O)c1c(NCCCN(C)C)ccc3nc(C)n2c31.Cl` [C-1375], the IC50 worked out at 1.3 ± 0.06 µM.

As to `CN(C)CCNc1ccc2ncn3c4ccccc4c(=O)c1c23.Cl` [C-1176], the IC50 was 2.35 ± 0.75 µM.

Turning to `CCN(CC)CCNc1ccc2ncn3c4c(OC)ccc(OC)c4c(=O)c1c23.Cl` [C-1503], the IC50 is 3.5 ± 0.64 µM.

`CCN(CC)CCNc1ccc2ncn3c4ccc(C(C)(C)C)cc4c(=O)c1c23.Cl` [C-1558]: the IC50 amounted to 1.48 ± 0.25 µM.

For `CCN(CC)CCNc1ccc2ncn3c4ccccc4c(=O)c1c23.Cl` [C-1415], the IC50 worked out at 2.7 ± 0.21 µM.

With `CN(C)CCCCCNc1ccc2ncn3c4ccc(O)cc4c(=O)c1c23.Cl` [C-1492], the IC50 turned out to be 1.69 ± 0.12 µM.

`CN(C)CCCNc1ccc2ncn3c4ccc(O)cc4c(=O)c1c23.Cl` [C-1371]: the IC50 came to 0.04 ± 0.006 µM.

Another test concerns A549/K1.5 cells. As to the kind of experiment: MTT cytotoxicity assay, ABCG2-overexpressing A549/K1.5 cells. It is filed as cell-based, Human. The following applies: ABCG2-overexpressing A549/K1.5 cells, 96 hours exposure, MTT. How it is done: as §1, §2, §3
Quantitative evaluation of ABCG2 interaction with various IA derivatives: The extent of ABCG2-mediated resistance was expressed using the Resistance Fold (RF) parameter representing the ratio between the IC50 values of the resistant cells and parental cells. Likewise, ABCG2-dependent differential accumulation of IAs in ABCG2-overexpressing A549/K1.5 cells was compared using the ratio of IA accumulation in the presence or absence of the potent ABCG2 inhibitor FTC. This was termed the FTC-dependent Accumulation Fold (AF) and was determined for each IA at a constant IA concentration of 10 μM.
In turn, `CN(C)CCNc1ccc2ncn3c4ccc(O)cc4c(=O)c1c23.Cl` [C-1584] displayed a half-maximal inhibitory concentration (IC50) of 0.25 ± 0.01 µM.

Regarding `CCN(CC)CCNc1ccc2ncn3c4c(O)cccc4c(=O)c1c23.Cl` [C-1633], the IC50 was 9.83 ± 1.44 µM.

For the compound `CCN(CC)CCCNc1ccc2nc(C)n3c4ccc(OC)cc4c(=O)c1c23.Cl` [C-1379], half-maximal inhibition (IC50) was put at 0.68 ± 0.06 µM.

Turning to `CCN(CC)CCNc1ccc2ncn3c4cc(O)ccc4c(=O)c1c23.Cl` [C-1419], the concentration for half-maximal inhibition (IC50) came out at 31.3 ± 2.55 µM.

Turning to `CCN(CC)CCNc1ccc2ncn3c4ccc(OC)cc4c(=O)c1c23.Cl` [C-1330], the concentration for half-maximal inhibition (IC50) was 0.97 ± 0.08 µM.

`CCN(CC)CCCNc1ccc2ncn3c4ccc(O)cc4c(=O)c1c23.Cl` [C-1335] yielded a half-inhibitory concentration (IC50) of 1 ± 0.25 µM.

`CN(C)CCCNc1ccc2ncn3c4ccccc4c(=O)c1c23.Cl` [C-1212] had an IC50 of 1.93 ± 0.84 µM.

`Cc1nc2ccc(NCCN(C)C)c3c(=O)c4ccccc4n1c23.Cl` [C-1213] gave a half-maximal inhibitory concentration (IC50) of 18.3 ± 2.4 µM.

In turn, `CCN(CC)CCNc1ccc2ncn3c4ccc(C)cc4c(=O)c1c23.Cl` [C-1554] displayed a 50% inhibitory concentration (IC50) of 3.07 ± 0.8 µM.

In turn, `COc1ccc2c(c1)c(=O)c1c(NCCCN(C)C)ccc3nc(C)n2c31.Cl` [C-1375] displayed a half-inhibitory concentration (IC50) of 1.25 ± 0.11 µM.

On to `CN(C)CCNc1ccc2ncn3c4ccccc4c(=O)c1c23.Cl` [C-1176], for which it took 1.21 ± 0.65 µM to reach half-maximal inhibition (IC50).

Regarding `CCN(CC)CCNc1ccc2ncn3c4c(OC)ccc(OC)c4c(=O)c1c23.Cl` [C-1503], half-maximal inhibition (IC50) required 3.09 ± 0.74 µM.

Compound `CCN(CC)CCNc1ccc2ncn3c4ccc(C(C)(C)C)cc4c(=O)c1c23.Cl` [C-1558] came in with a half-inhibitory concentration (IC50) of 2.51 ± 0.17 µM.

With `CCN(CC)CCNc1ccc2ncn3c4ccccc4c(=O)c1c23.Cl` [C-1415], 2.38 ± 0.12 µM corresponded to half-maximal inhibition (IC50).

Compound `CN(C)CCCCCNc1ccc2ncn3c4ccc(O)cc4c(=O)c1c23.Cl` [C-1492] had a half-inhibitory concentration (IC50) of 17.2 ± 1.95 µM.

The compound `CN(C)CCCNc1ccc2ncn3c4ccc(O)cc4c(=O)c1c23.Cl` [C-1371] had a half-maximal inhibitory concentration (IC50) of 0.7 ± 0.03 µM.

Still in this test, the particulars now being: IC50 of A549/K1.5 cells divided by IC50 of parental A549 cells.
For `CN(C)CCNc1ccc2ncn3c4ccc(O)cc4c(=O)c1c23.Cl` [C-1584], the “RF (resistance fold)” value was 19.20.

With `CCN(CC)CCNc1ccc2ncn3c4c(O)cccc4c(=O)c1c23.Cl` [C-1633], the “RF (resistance fold)” value turned out to be 4.35.

`CCN(CC)CCCNc1ccc2nc(C)n3c4ccc(OC)cc4c(=O)c1c23.Cl` [C-1379]: the “RF (resistance fold)” value is reported as 0.63.

Turning to `CCN(CC)CCNc1ccc2ncn3c4cc(O)ccc4c(=O)c1c23.Cl` [C-1419], the “RF (resistance fold)” value amounted to 10.70.

`CCN(CC)CCNc1ccc2ncn3c4ccc(OC)cc4c(=O)c1c23.Cl` [C-1330]: the “RF (resistance fold)” value is recorded as 0.45.

`CCN(CC)CCCNc1ccc2ncn3c4ccc(O)cc4c(=O)c1c23.Cl` [C-1335]: the “RF (resistance fold)” value is 11.10.

For `CN(C)CCCNc1ccc2ncn3c4ccccc4c(=O)c1c23.Cl` [C-1212], the “RF (resistance fold)” value worked out at 1.02.

On to `Cc1nc2ccc(NCCN(C)C)c3c(=O)c4ccccc4n1c23.Cl` [C-1213], for which the “RF (resistance fold)” value is given as 1.49.

Turning to `CCN(CC)CCNc1ccc2ncn3c4ccc(C)cc4c(=O)c1c23.Cl` [C-1554], the “RF (resistance fold)” value came out at 1.51.

Take `COc1ccc2c(c1)c(=O)c1c(NCCCN(C)C)ccc3nc(C)n2c31.Cl` [C-1375]: the “RF (resistance fold)” value came to 0.96.

Take `CN(C)CCNc1ccc2ncn3c4ccccc4c(=O)c1c23.Cl` [C-1176]: the “RF (resistance fold)” value was 0.51.

For the compound `CCN(CC)CCNc1ccc2ncn3c4c(OC)ccc(OC)c4c(=O)c1c23.Cl` [C-1503], the “RF (resistance fold)” value is given as 0.88.

With `CCN(CC)CCNc1ccc2ncn3c4ccc(C(C)(C)C)cc4c(=O)c1c23.Cl` [C-1558], the “RF (resistance fold)” value was 1.70.

With `CCN(CC)CCNc1ccc2ncn3c4ccccc4c(=O)c1c23.Cl` [C-1415], the “RF (resistance fold)” value stood at 0.88.

As to `CN(C)CCCCCNc1ccc2ncn3c4ccc(O)cc4c(=O)c1c23.Cl` [C-1492], the “RF (resistance fold)” value turned out to be 10.10.

For `CN(C)CCCNc1ccc2ncn3c4ccc(O)cc4c(=O)c1c23.Cl` [C-1371], the “RF (resistance fold)” value worked out at 17.90.

Staying with this test, now noted: versus parental A549 cells.
Regarding `CN(C)CCNc1ccc2ncn3c4ccc(O)cc4c(=O)c1c23.Cl` [C-1584], the “resistance of A549/K1.5 cells (in words)” value is listed as “prominent resistance”.

For `CCN(CC)CCNc1ccc2ncn3c4c(O)cccc4c(=O)c1c23.Cl` [C-1633], the “resistance of A549/K1.5 cells (in words)” value was “prominent resistance”.

In the case of `CCN(CC)CCNc1ccc2ncn3c4cc(O)ccc4c(=O)c1c23.Cl` [C-1419], the “resistance of A549/K1.5 cells (in words)” value is “prominent resistance”.

`CCN(CC)CCNc1ccc2ncn3c4ccc(OC)cc4c(=O)c1c23.Cl` [C-1330]: the “hypersensitivity of A549/K1.5 cells” value stood at 2.2 fold.

`CCN(CC)CCCNc1ccc2ncn3c4ccc(O)cc4c(=O)c1c23.Cl` [C-1335]: the “resistance of A549/K1.5 cells (in words)” value is on record as “prominent resistance”.

Regarding `CN(C)CCCCCNc1ccc2ncn3c4ccc(O)cc4c(=O)c1c23.Cl` [C-1492], the “resistance of A549/K1.5 cells (in words)” value was “prominent resistance”.

As to `CN(C)CCCNc1ccc2ncn3c4ccc(O)cc4c(=O)c1c23.Cl` [C-1371], the “resistance of A549/K1.5 cells (in words)” value is “prominent resistance”.
